Source: paper PMC10518255, “A first-in-class pan-lysyl oxidase inhibitor impairs stromal remodeling and enhances gemcitabine response and survival in pancreatic cancer” (Nature Cancer, 2023)
Where “and” joins values, the source holds several entries; their conditions need not be identical. Identical values can stand only once.

What was measured:
KPC mouse model of PDAC = experiment: KPC in vivo survival study; conditions: KPC mice; PXS-5505 20 mg kg−1 i.p. daily, gemcitabine 100 mg kg−1 i.p. twice weekly
Excerpt: (§1) The maximal tumor burden allowed by ethics was not exceeded.
as §1

TKCC10 human PDX tumors = experiment: TKCC10 human model, picrosirius red birefringence after three rounds of therapy (Extended Data Fig. 5d); type: in vivo, mouse; conditions: for Quantification of red birefringent (mature) collagen fibres: Extended Data 5D, human PDXs at endpoint after 3 cycles of treatment, individual replicates
Method: (§2) Subcutaneous PDX studies were performed by implanting early passage PDX pieces (~4 mm^3) or TKCC10 CCs (1.5 × 10^6 cells per mouse in 100 μl PBS/Matrigel 1:1) into female (PDX) or male (TKCC10) 8-week-old immunocompromised nude Balb/c-Fox1nuAusb mice subcutaneously on the left flank. For the duration of the study, mice were kept in conventional caging with environmental enrichment, access to standard chow, water ad libitum and 12-h light–dark cycle at ambient temperature and humidity. Treatment began when tumors reached 150 mm^3, where each mouse was randomized into a treatment group and administered gemcitabine HCl (100 mg kg^−1 in saline) (Jomar Life Research) or vehicle control (0.9% saline) by i.p. injection twice weekly on day 2 and 4 of the treatment cycle until an ethical end point was reached. These included maximal tumor mass ≥10% of body weight, weight loss ≥20% from maximum body weight or tumor interfering with mobility and affecting access to food and water. Animals with non-tumor-related complications that led to a premature end point were censored. […] Tumor size was monitored every second day by calipers. Tumor volume was calculated using the formula (length × width^2)/2. […]
Extended Data Fig. 5 PXS-5505 in combination with gemcitabine in vivo. a. […] Signal is defined as the enzyme activity in the aorta, while noise is measured in the presence of a high concentration (300 µM) BAPN to abolish any lysyl oxidase family activity. […] FITC-dextran (molecular weight: 10 kDa) signal quantification from KPC tumor end point from each treatment group (vehicle n = 3 biologically independent animals, PXS-5505 n = 5 biologically independent animals, Gem n = 5 biologically independent animals, PXS-5505 + Gem n = 5 biologically independent animals). […] P-values determined by Welchs t-test. […] Quantification of red birefringent (mature) collagen fibers from human PDXs at end point after 3 cycles of treatment, treated as indicated. […] P values determined by Welchs t-test. g. […] Quantification of green birefringent (nascent) collagen fibers from human PDXs at end point, treated as indicated. […]

APMA human PDX tumors = experiment: APMA human PDX model, picrosirius red birefringence (Extended Data Fig. 5i); type: in vivo, mouse; conditions: for Quantification of green birefringent (nascent) collagen fibres: Extended Data 5I, human PDXs at endpoint, individual animals
Method: as §2
For assessment of picrosirius red staining in KPC and APMA patient tumors, five representative regions of interest per section were analyzed for both brightfield and polarized light by a blinded reviewer using in-house automated analysis scripts as described previously[28],[34],[58] […]
Extended Data Fig. 5 PXS-5505 in combination with gemcitabine in vivo. a. […] Signal is defined as the enzyme activity in the aorta, while noise is measured in the presence of a high concentration (300 µM) BAPN to abolish any lysyl oxidase family activity. […] FITC-dextran (molecular weight: 10 kDa) signal quantification from KPC tumor end point from each treatment group (vehicle n = 3 biologically independent animals, PXS-5505 n = 5 biologically independent animals, Gem n = 5 biologically independent animals, PXS-5505 + Gem n = 5 biologically independent animals). […] P-values determined by Welchs t-test. […]

| Compound | Median survival since diagnosis (KPC mouse model of PDAC) [days] | Quantification of red birefringent (mature) collagen fibres (TKCC10 human PDX tumors) | Quantification of green birefringent (nascent) collagen fibres (APMA human PDX tumors) | tumor fibrillar collagen content (picrosirius red birefringence) (TKCC10 human PDX tumors; TKCC10 model, three rounds of therapy) | deposition of collagen I (picrosirius red birefringence) (APMA human PDX tumors; APMA human PDX, three rounds of treatment) |
| --- | --- | --- | --- | --- | --- |
| Cl.Cl.NC/C=C(\F)CS(=O)(=O)c1cccc2cccnc12.O [PXS-5505, (Z)-3-fluoro-4-(quinolin-8-ylsulfonyl)but-2-en-1-amine dihydrochloride monohydrate] | 81 | 965 and 112 and 188 and 2 and 295 and 380 and 3894 and 62 and 792 and 254 and 25 and 1015 and 164 and 72 and 282 and 10 and 83 (2×) and 9 and 15 and 1307 and 917 and 737 and 1467 and 503 | 61.6667 and 1138 and 246 and 184 and 80.3333 and 99.6667 and 1125.33 and 424.667 and 169.333 and 108 |  |  |
| Nc1ccn([C@@H]2O[C@H](CO)[C@@H](O)C2(F)F)c(=O)n1 [Gem, gemcitabine] | 125 | 806 and 284 and 128 and 654 and 1145 and 167 and 291 and 56 and 399 and 263 and 1177 and 403 and 843 and 2660 and 1208 and 745 and 4462 and 5568 and 5319 and 1528 and 2340 and 4185 and 3205 and 2211 and 5904 | 672.333 and 613 and 417.333 and 643.667 and 776 and 904.333 and 1865.67 and 529.667 and 397.667 and 278 | increases fibrillar collagen I content | increase in the deposition of collagen I |
